In BindingDB's records for doi:10.1016/S0960-894X(97)00207-2 (1997) one finds IC50 data, which are given here for one compound.

For the assay, the target named is Beta-2 adrenergic receptor (Cavia porcellus) (UniProt Q8K4Z4). Put plainly: Tested for beta-2-adrenergic blocking effect by measuring the ability to inhibit the relaxing effect of epinephrine on the isolated tracheal muscle of guinea pigs.

SMILES strings stand for the structures.

Beta-2 adrenergic receptor (Cavia porcellus), sequence (Q8K4Z4 whole entry, looked up): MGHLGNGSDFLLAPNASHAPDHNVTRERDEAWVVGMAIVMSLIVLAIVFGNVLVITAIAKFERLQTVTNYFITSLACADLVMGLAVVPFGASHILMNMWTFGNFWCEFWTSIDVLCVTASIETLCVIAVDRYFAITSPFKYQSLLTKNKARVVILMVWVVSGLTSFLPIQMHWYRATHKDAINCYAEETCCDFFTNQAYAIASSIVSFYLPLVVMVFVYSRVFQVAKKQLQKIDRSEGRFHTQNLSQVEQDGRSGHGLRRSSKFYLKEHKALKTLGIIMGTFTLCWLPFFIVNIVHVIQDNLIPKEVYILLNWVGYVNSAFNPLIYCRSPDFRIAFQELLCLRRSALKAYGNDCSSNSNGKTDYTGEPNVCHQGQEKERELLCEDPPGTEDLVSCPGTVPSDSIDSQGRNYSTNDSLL

In the case of `COCCc1ccc(OC(F)(F)[C@@H](O)CNC(C)C)cc1` [(S)-1,1-Difluoro-3-isopropylamino-1-[4-(2-methoxy-ethyl)-phenoxy]-propan-2-ol], the IC50 – broadly, the concentration that inhibits the measured activity by half – came out at 2150 nM.
